Columns and labels:
[1] = 101 kPa, Liquid
[2] = refractive index (Na D-line) (dimensionless); conditions: 101.33 kPa, Liquid
[3] = xn = mol fraction of the nth substance listed; conditions: 101 kPa, Liquid
[4] = refractive index (Na D-line) (dimensionless); xn = mol fraction of the nth substance listed; conditions: 101 kPa, Liquid

Clc1ccccc1Cl [1,2-dichlorobenzene]
Conditions | mass density, 298.15 K [kg/m3] | mass density, 303.15 K [kg/m3] | mass density, 308.15 K [kg/m3] | refractive index, 298.15 K | refractive index, 303.15 K | refractive index, 308.15 K | speed of sound, 298.15 K [m/s] | viscosity, 298.15 K [mPa·s] | viscosity, 303.15 K [mPa·s] | viscosity, 308.15 K [mPa·s]
[1] | 1300.9 | 1295.4 | 1289.7 | – | – | – | 1280 | 1.324 | 1.214 | 1.105
[2] | – | – | – | 1.5499 | 1.5476 | 1.545 | – | – | – | –

CCOC(=O)CC(=O)OCC [diethyl 1,3-propanedioate] + C1COCCO1
Conditions | mass density, 298.15 K [kg/m3] | mass density, 303.15 K [kg/m3] | mass density, 308.15 K [kg/m3] | refractive index, 298.15 K | refractive index, 303.15 K | refractive index, 308.15 K | speed of sound, 298.15 K [m/s] | viscosity, 298.15 K [mPa·s] | viscosity, 303.15 K [mPa·s] | viscosity, 308.15 K [mPa·s]
[3], x2 = 0 | 1049.6 | 1044.2 | 1038.8 | – | – | – | 1304 | 1.941 | 1.755 | 1.602
[3], x2 = 0.1005 | 1048.1 | 1042.8 | 1037.4 | – | – | – | 1308 | 1.858 | 1.698 | 1.537
[3], x2 = 0.1982 | 1046.6 | 1041.2 | 1035.8 | – | – | – | 1312 | 1.777 | 1.626 | 1.476
[3], x2 = 0.2959 | 1044.9 | 1039.6 | 1034.2 | – | – | – | 1316 | 1.7 | 1.556 | 1.413
[3], x2 = 0.3959 | 1043 | 1037.7 | 1032.3 | – | – | – | 1320 | 1.619 | 1.484 | 1.349
[3], x2 = 0.4959 | 1041 | 1035.6 | 1030.2 | – | – | – | 1324 | 1.542 | 1.415 | 1.287
[3], x2 = 0.5951 | 1038.8 | 1033.4 | 1028 | – | – | – | 1328 | 1.465 | 1.346 | 1.227
[3], x2 = 0.6944 | 1036.4 | 1030.9 | 1025.5 | – | – | – | 1332 | 1.391 | 1.28 | 1.17
[3], x2 = 0.796 | 1033.7 | 1028.2 | 1022.8 | – | – | – | 1337 | 1.316 | 1.214 | 1.111
[3], x2 = 0.8977 | 1030.9 | 1025.4 | 1019.9 | – | – | – | 1341 | 1.249 | 1.153 | 1.057
[4], x2 = 0 | – | – | – | 1.4132 | 1.4108 | 1.4085 | – | – | – | –
[4], x2 = 0.1005 | – | – | – | 1.4135 | 1.4113 | 1.409 | – | – | – | –
[4], x2 = 0.1982 | – | – | – | 1.4139 | 1.412 | 1.4093 | – | – | – | –
[4], x2 = 0.2959 | – | – | – | 1.4143 | 1.4123 | 1.4095 | – | – | – | –
[4], x2 = 0.3959 | – | – | – | 1.4147 | 1.4127 | 1.4099 | – | – | – | –
[4], x2 = 0.4959 | – | – | – | 1.415 | 1.4137 | 1.4103 | – | – | – | –
[4], x2 = 0.5951 | – | – | – | 1.4161 | 1.4147 | 1.4113 | – | – | – | –
[4], x2 = 0.6944 | – | – | – | 1.4171 | 1.4157 | 1.4122 | – | – | – | –
[4], x2 = 0.796 | – | – | – | 1.4181 | 1.4167 | 1.4132 | – | – | – | –
[4], x2 = 0.8977 | – | – | – | 1.4192 | 1.4231 | 1.4141 | – | – | – | –

Source: the NIST ThermoML archive (doi:10.1021/je049609w)
